Measurements taken from the supplement of paper PMC11208160.

Test: recombinant UMI read abundance after kanamycin selection (control-corrected) (log10(CPM+1)); higher = more efficient recombination; extreme values may be limits of the assay; sequences stand for … in AGTGCAGAGAAAATCGGCCAGTTTTCTCTGCCTGCAGTCCGCATGCCGTGGGACCCCTTGGGTTCTAACCTGTTGCCTAGATTTATGCAGCGGACTGCCTTTCTCCCAAAGTGATAAACCGG…AGGTTGGTTTCACT; site = the 11-nt donor
How it was run: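 Two replicates each of selected and unselected plating were used in this pooled Escherichia coli screen of donor and donor-binding-loop pairs for the IS621 bridge recombinase. Selection was with IPTG (0.07 mM) and kanamycin. Counts of recombinant UMIs, amplified across the donor–target junction, were converted to CPM, averaged, scaled by control-derived factors and reported as log10(CPM+1).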
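Further: IS621 bridge recombinase in Escherichia coli cells against a fixed T5 target plasmid.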

| Sequence | recombinant UMI read abundance (log10) |
| --- | --- |
| CCGTTTACATGGACCGGTTTTCCCGGTAATCCGTATTTGTT (site CCGTTTACTAA) | 0.175 |
| CCGTTTACATGGACCGGTTTTCCCGGTAATCCGTATTTGTT (site CCGTTTACTAC) | 0 |
| CCGTTTACATGGACCGGTTTTCCCGGTAATCCGTATTTGTT (site CCGTTTACTAG) | 0 |
| CCGTTTACATGGACCGGTTTTCCCGGTAATCCGTATTTGTT (site CCGTTTACTAT) | 0 |
| CCGTTTGCATGGACCGGTTTTCCCGGTAATCCGTATTTGCT (site CCGTTTACTAG) | 0 |
| CCGTTTGCATGGACCGGTTTTCCCGGTAATCCGTATTTGCT (site CCGTTTCCTAG) | 0 |
| CCGTTTGCATGGACCGGTTTTCCCGGTAATCCGTATTTGCT (site CCGTTTGCTAG) | 0 |
| CCGTTTGCATGGACCGGTTTTCCCGGTAATCCGTATTTGCT (site CCGTTTTCTAG) | 0 |
| CCGTTTGCATGGACCGGTTTTCCCGGTAATCCGTATTTGGT (site CCGTTTGCTAC) | 0.48 |
| CCTAAACCATGGACCGGTTTTCCCGGTAATCCGTATTTGAT (site CCTAAAACTAT) | 0 |
| CCTAAACCATGGACCGGTTTTCCCGGTAATCCGTATTTGAT (site CCTAAACCTAT) | 0 |
| CCTAAACCATGGACCGGTTTTCCCGGTAATCCGTATTTGAT (site CCTAAAGCTAT) | 0 |
| CCTAAACCATGGACCGGTTTTCCCGGTAATCCGTATTTGAT (site CCTAAATCTAT) | 0 |
| CCTAAAGCATGGACCGGTTTTCCCGGTAATCCGTATTTGAC (site CCTAAAGCTAT) | 0 |
| CCTAAAGCATGGACCGGTTTTCCCGGTAATCCGTATTTGAC (site CCTAAAGCTCT) | 0.00302 |
| CCTAAAGCATGGACCGGTTTTCCCGGTAATCCGTATTTGAC (site CCTAAAGCTGT) | 0 |
| CCTAAAGCATGGACCGGTTTTCCCGGTAATCCGTATTTGAC (site CCTAAAGCTTT) | 0.0124 |
| CCTAAATCATGGACCGGTTTTCCCGGTAATCCGTATTTGAT (site CCTAAAACTAT) | 0 |
| CCTAAATCATGGACCGGTTTTCCCGGTAATCCGTATTTGAT (site CCTAAACCTAT) | 0 |

| Sequence | recombinant UMI read abundance (log10) |
| --- | --- |
| CCTAAATCATGGACCGGTTTTCCCGGTAATCCGTATTTGAT (site CCTAAAGCTAT) | 0 |
| CCTAAATCATGGACCGGTTTTCCCGGTAATCCGTATTTGAT (site CCTAAATCTAT) | 0.00669 |
| CCTAACCCATGGACCGGTTTTCCCGGTAATCCGTATTTGAG (site CCTAACCCTCT) | 0.00788 |
| CCTAACGCATGGACCGGTTTTCCCGGTAATCCGTATTTGCT (site CCTAACGCTAG) | 0 |
| CCTAATACATGGACCGGTTTTCCCGGTAATCCGTATTTGCC (site CCTAATACTGA) | 0 |
| CCTAATACATGGACCGGTTTTCCCGGTAATCCGTATTTGCC (site CCTAATACTGC) | 0 |
| CCTAATACATGGACCGGTTTTCCCGGTAATCCGTATTTGCC (site CCTAATACTGG) | 0 |
| CCTAATACATGGACCGGTTTTCCCGGTAATCCGTATTTGCC (site CCTAATACTGT) | 0 |
| CCTAATACATGGACCGGTTTTCCCGGTAATCCGTATTTGGA (site CCTAATACTAC) | 0 |
| CCTAATACATGGACCGGTTTTCCCGGTAATCCGTATTTGGA (site CCTAATACTCC) | 0.00642 |
| CCTAATACATGGACCGGTTTTCCCGGTAATCCGTATTTGGA (site CCTAATACTGC) | 0 |
| CCTAATACATGGACCGGTTTTCCCGGTAATCCGTATTTGGA (site CCTAATACTTC) | 0.00465 |
| CCTAATACATGGACCGGTTTTCCCGGTAATCCGTATTTGGG (site CCTAATACTAC) | 0 |
| CCTAATACATGGACCGGTTTTCCCGGTAATCCGTATTTGGG (site CCTAATACTCC) | 0.011 |
| CCTAATACATGGACCGGTTTTCCCGGTAATCCGTATTTGGG (site CCTAATACTGC) | 0 |
| CCTAATACATGGACCGGTTTTCCCGGTAATCCGTATTTGGG (site CCTAATACTTC) | 0.0102 |
| CCTAATGCATGGACCGGTTTTCCCGGTAATCCGTATTTGAT (site CCTAAAGCTAT) | 0 |
| CCTAATGCATGGACCGGTTTTCCCGGTAATCCGTATTTGAT (site CCTAACGCTAT) | 0.00278 |
| CCTAATGCATGGACCGGTTTTCCCGGTAATCCGTATTTGAT (site CCTAAGGCTAT) | 0 |
